In publication PMC7288171, “Synergistic Effects of Thiosemicarbazides with Clinical Drugs against S. aureus” (Molecules, 2020):
Values after ≈ are worked out from the molar mass of the structure shown. Where two headings read alike, the source gives them in different places.

Experiments:
B. cereus ATCC 10876 = assay: MIC, broth microdilution; type: cell-based; details: Bacillus cereus, ATCC10876; B. c. ATCC 10876; compounds 6–9 and antibiotics; read-out: MIC
Protocol: (§1) The antibacterial activity of the thiosemicarbazides 1–9 and antibiotics (amoxicillin, gentamicin, levofloxacin, linezolid, and vancomycin) was tested on the Gram-positive strains (Microbiologics, St. Cloud, MN, USA) (S. aureus ATCC 25923, S. aureus ATCC 6538, S. epidermidis ATCC 12228, B. subtilis ATCC 6633, B. cereus ATCC 10876, M. luteus ATCC 10240), the Gram-negative strains (Microbiologics, St. Cloud, MN, USA) (E. coli ATCC 25922, K. pneumoniae ATCC 13883, P. mirabilis ATCC 12453, P. aeruginosa ATCC 9027), and clinical isolates of S. aureus (Medical University of Lublin, Lublin, Poland) (MSSA-1, MSSA-2, MSSA-3, MSSA-4, MRSA-1).

M. luteus ATCC 10240 = assay: MIC, broth microdilution; type: cell-based; details: Micrococcus luteus, ATCC10240; M. l. ATCC 10240; compounds 6–9 and antibiotics; read-out: MIC
Protocol: as §1

[1] = system: S. epidermidis ATCC 12228; assay: MIC, broth microdilution; type: cell-based; details: Staphylococcus epidermidis, ATCC12228; S. e. ATCC 12228; compounds 6–9 and antibiotics; read-out: MIC
Protocol: as §1

S. aureus ATCC 25923 [2] = assay: MIC, broth microdilution; type: cell-based; details: S. a. ATCC 25923, compounds 6–9 and antibiotics
Protocol: as §1

B. subtilis ATCC 6633 = assay: MIC, broth microdilution; type: cell-based; details: Bacillus subtilis, ATCC6633; B. s. ATCC 6633; compounds 6–9 and antibiotics; read-out: MIC
Protocol: as §1

S. aureus ATCC 6538 = assay: MIC, broth microdilution; type: cell-based; details: Staphylococcus aureus, ATCC6538; S. a. ATCC 6538; compounds 6–9 and antibiotics; read-out: MIC
Protocol: as §1

S. aureus DNA gyrase = target: T1, S. aureus DNA gyrase (Staphylococcus aureus, UniProt P0A0K8+P20831); assay: Gyrase supercoiling assay; type: biochemical; details: read-out: S. aureus Gyrase DNA Inhibition (%) ± SD
T1 construct: purchased Inspiralis, Norwich, UK
T1 sequence (P20831 whole entry): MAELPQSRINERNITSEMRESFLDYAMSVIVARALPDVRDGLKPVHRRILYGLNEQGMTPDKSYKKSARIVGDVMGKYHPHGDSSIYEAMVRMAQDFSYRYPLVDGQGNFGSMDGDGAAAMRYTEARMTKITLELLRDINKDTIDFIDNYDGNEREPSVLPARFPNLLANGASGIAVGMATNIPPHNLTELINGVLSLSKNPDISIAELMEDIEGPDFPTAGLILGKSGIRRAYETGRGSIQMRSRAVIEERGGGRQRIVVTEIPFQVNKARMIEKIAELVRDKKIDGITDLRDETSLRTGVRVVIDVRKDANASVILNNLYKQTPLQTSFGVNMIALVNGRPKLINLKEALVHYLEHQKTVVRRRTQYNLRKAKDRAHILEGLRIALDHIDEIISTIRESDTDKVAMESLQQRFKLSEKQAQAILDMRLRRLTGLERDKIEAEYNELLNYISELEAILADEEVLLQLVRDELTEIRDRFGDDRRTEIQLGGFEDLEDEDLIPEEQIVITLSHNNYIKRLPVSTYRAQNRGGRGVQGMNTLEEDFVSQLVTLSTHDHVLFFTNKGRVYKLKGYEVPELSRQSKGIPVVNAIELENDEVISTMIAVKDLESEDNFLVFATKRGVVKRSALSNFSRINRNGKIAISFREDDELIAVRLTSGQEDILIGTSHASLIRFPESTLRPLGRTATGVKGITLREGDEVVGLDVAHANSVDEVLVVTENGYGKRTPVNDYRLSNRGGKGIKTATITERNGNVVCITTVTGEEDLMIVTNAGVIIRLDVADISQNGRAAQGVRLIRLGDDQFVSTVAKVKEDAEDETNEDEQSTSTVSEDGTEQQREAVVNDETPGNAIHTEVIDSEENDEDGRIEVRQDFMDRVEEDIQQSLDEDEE
T1 sequence (P0A0K8 whole entry): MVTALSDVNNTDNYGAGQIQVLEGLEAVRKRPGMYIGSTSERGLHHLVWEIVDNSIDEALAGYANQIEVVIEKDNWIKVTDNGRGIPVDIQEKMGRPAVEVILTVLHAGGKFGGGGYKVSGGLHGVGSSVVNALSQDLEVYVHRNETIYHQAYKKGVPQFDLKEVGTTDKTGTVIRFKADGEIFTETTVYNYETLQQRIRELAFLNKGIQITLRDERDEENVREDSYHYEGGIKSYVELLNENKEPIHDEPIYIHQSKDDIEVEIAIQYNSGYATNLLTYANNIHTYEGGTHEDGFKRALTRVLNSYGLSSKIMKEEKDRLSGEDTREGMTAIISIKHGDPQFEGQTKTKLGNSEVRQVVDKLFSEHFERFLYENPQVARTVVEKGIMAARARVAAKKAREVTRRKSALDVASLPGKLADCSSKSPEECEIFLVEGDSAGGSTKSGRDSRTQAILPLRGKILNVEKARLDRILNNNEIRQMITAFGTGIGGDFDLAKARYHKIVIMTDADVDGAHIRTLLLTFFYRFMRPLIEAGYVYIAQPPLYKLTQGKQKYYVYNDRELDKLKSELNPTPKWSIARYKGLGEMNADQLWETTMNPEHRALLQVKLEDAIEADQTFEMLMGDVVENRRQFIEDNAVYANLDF
Protocol: Supercoiling assay: The assays were performed using S. aureus Gyrase Supercoiling Assay Kits (Inspiralis, Norwich, UK). Briefly, […] pBR322 plasmid DNA (0.5 µg) was incubated with 1 unit of gyrase, in the dedicated supercoiling assay buffer supplied by the manufacturer, in the presence of varying concentrations of the test compounds. Reactions were carried out at 37 °C for 1 h and then terminated by the addition of equal volume of 2 × STOP Buffer (40% sucrose, 100 mM Tris-Cl pH 7.5, 1 mM EDTA, and 0.5 mg/mL bromophenol blue) and chloroform/iso-amyl alcohol. Samples were vortexed, centrifuged, and run through a 15 cm 1% agarose gel in TAE buffer (40 mM Tris-acetate, 2 mM EDTA) for 3 h at 50 V. Gels were stained with ethidium bromide and visualized under UV light.

MSSA-3 = assay: MIC, clinical isolate of S. aureus; type: cell-based; details: Staphylococcus aureus; clinical isolate MSSA-3; read-out: MIC
Protocol: as §1

MSSA-4 = assay: MIC, clinical isolate of S. aureus; type: cell-based; details: Staphylococcus aureus; clinical isolate MSSA-4; read-out: MIC
Protocol: as §1

MRSA-1 = assay: MIC, clinical isolate of S. aureus; type: cell-based; details: Staphylococcus aureus; clinical isolate MRSA-1; read-out: MIC
Protocol: as §1

MSSA-2 = assay: MIC, clinical isolate of S. aureus; type: cell-based; details: Staphylococcus aureus; clinical isolate MSSA-2; read-out: MIC
Protocol: as §1

MSSA-1 = assay: MIC, clinical isolate of S. aureus; type: cell-based; details: Staphylococcus aureus; clinical isolate MSSA-1; read-out: MIC
Protocol: as §1

S. aureus ATCC 25923 [3] = assay: Checkerboard broth dilution synergy assay; type: cell-based
Protocol: The microdilution checkerboard method was used to evaluate the synergistic effects between the thiosemicarbazides 1–9 and antibiotics, which were determined as the fractional inhibitory concentration indices (FICIs). For these experiments, amoxicillin, gentamicin, levofloxacin, linezolid, and vancomycin were selected to represent the five antimicrobial classes most commonly used in clinical practice. In this way, a total of 45 combinations of thiosemicarbazide-amoxicillin, thiosemicarbazide-gentamicin, thiosemicarbazide-levofloxacin, thiosemicarbazide-linezolid, and thiosemicarbazide-vancomycin against S. aureus ATCC 25923 were tested to identify in vitro synergy effects.
Interaction of the thiosemicarbazides 1–9 in combination with amoxicillin, gentamicin, levofloxacin, linezolid or vancomycin against S. aureus ATCC 25923 were analyzed using the checkerboard broth dilution method to determine the fractional inhibitory concentration indices (FICIs), calculated as: FIC = MIC of drug A in combination/MIC of drug A alone + MIC of drug B in combination/MIC of drug B alone. The calculated FICIs were interpreted as synergistic (FIC ≤ 0.5), additive (0.5 < FIC < 1), indifferent (1 ≤ FIC < 4.0), or antagonistic (FIC ≥ 4.0). The checkerboard assay included ciprofloxacin-carvedilol combination as positive control, whereas cefuroxime in combination with 4-(4-bromophenyl)-1-(3-fluorobezoyl)thiosemicarbazide served as negative control. The Z-factor value for the bioassay was 0.683.

MTT cytotoxicity assay = type: cell-based, human; details: human, Hs27 foreskin fibroblast cells (ATCC CRL-1634), 25 µg/mL, 24 h, vehicle control = 100%
Protocol: (§2) A critical factor in research and development of new antibacterial agents is their abilities to selectively target bacterial cells without toxicity to mammalian cells. Thus, in order to test if antibacterial activity of title thiosemicarbazides is not due to their general toxicity, their effect on mammalian cell viability was assessed using human foreskin fibroblast Hs27 cells (CRL-1634) via MTT assay.
(§3) Cytotoxic properties of the compounds were evaluated using human foreskin fibroblast cells Hs27 (ATCC CRL-1634) (ATCC, Manassas, VA, USA) that were cultured in DMEM-high glucose (Sigma Aldrich, St. Louis, MO, USA). Medium was supplemented with 10% fetal bovine serum (FBS, Sigma Aldrich), 100 U/mL of penicillin, and […] of streptomycin (PenStrep, Sigma Aldrich, St. Louis, MO, USA). Cells were incubated at 37 °C in a humidified atmosphere of 5% CO2. Stock solutions of the tested compounds were prepared dissolving in a sterile dimethyl sulfoxide (DMSO) to the concentration of 50 mg/mL. The cells were seeded into 96-well sterile plates (Nunc) at a cell density of 1 × 10^5 cells/mL. After 24 h of incubation, the medium was removed from each well, and then cells were incubated for the next 24 h with tested compounds (in a fixed dose of 25 µg/mL) in DMEM-high glucose containing 2% FBS. Control cells were cultured only with medium containing 2% addition of FBS. Cytotoxicity of the compounds was evaluated using MTT assay, which is based on the conversion of 3-(4,5-dimethylthiazol-2-yl)-2,5- diphenyltetrazolium bromide (MTT) into dark-blue formazan crystals. Briefly, after 24-h incubation of cells with varying concentrations of the tested compounds, culture medium was removed from the plates. Cells were washed with PBS, and then 100 µL of medium containing 10% MTT solution (5 mg/mL) was added to each well. Cells were incubated for the next 3 h at 37 °C in an atmosphere of 5% CO2. Next, 100 µL (per well) of 10% sodium dodecyl sulfate (SDS) buffer solution was added to dissolve formazan crystals and after an overnight incubation the absorbance was measured at 570 nm using a microplate reader (Epoch, BioTek Instruments, Inc., Winooski, VT, USA).

[4] = system: human foreskin fibroblast Hs27 cells (CRL-1634); assay: MTT cytotoxicity assay; type: cell-based; details: Homo sapiens, 24 h of treatment
Protocol: as §2, §3

[5] = target: T2, S. aureus topoisomerase IV (Staphylococcus aureus, UniProt P0C1S7+P0C1U9); assay: Topoisomerase IV decatenation assay; type: biochemical; details: in words; 50 and 100 µM tested (Figures S1–S3)
T2 construct: purchased Inspiralis, Norwich, UK
T2 sequence (P0C1U9 whole entry): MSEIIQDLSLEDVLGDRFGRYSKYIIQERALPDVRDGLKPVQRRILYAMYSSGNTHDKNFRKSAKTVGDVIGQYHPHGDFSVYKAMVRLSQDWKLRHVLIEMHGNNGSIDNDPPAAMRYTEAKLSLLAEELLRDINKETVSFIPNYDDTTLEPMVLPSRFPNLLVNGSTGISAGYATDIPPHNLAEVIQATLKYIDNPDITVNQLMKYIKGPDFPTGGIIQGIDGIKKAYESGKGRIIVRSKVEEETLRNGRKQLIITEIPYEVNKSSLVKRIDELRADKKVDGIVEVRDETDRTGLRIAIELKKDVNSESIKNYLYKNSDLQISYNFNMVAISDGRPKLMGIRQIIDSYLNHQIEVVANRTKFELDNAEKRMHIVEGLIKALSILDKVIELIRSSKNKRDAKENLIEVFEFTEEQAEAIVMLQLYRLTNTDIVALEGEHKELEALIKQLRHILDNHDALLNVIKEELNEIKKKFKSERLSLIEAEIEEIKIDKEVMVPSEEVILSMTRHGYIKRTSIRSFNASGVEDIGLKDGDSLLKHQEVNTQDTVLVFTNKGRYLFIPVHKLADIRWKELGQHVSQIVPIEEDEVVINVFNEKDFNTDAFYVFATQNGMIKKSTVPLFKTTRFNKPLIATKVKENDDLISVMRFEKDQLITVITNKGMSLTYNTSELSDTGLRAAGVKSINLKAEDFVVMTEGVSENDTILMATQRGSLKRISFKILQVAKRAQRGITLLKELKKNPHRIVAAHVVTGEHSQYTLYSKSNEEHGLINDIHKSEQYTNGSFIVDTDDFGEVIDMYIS
T2 sequence (P0C1S7 whole entry): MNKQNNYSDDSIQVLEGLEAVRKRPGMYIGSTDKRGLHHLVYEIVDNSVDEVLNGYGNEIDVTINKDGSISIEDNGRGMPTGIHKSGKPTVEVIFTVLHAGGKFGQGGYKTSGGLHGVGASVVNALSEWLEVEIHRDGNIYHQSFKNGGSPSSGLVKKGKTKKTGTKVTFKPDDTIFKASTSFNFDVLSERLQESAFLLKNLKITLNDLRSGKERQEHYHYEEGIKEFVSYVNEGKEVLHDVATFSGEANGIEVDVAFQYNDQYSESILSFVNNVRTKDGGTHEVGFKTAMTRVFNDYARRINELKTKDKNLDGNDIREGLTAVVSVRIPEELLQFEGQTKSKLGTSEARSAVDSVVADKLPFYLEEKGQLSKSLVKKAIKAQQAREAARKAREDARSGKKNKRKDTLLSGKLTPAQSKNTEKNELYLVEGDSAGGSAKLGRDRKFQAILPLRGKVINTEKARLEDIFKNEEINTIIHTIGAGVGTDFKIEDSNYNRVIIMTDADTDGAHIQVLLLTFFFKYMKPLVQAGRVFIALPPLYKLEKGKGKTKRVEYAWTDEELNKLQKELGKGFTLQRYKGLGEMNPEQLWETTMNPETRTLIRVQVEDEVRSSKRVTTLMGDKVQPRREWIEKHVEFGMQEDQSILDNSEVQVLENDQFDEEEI
Protocol: Inhibition of decatenation activity of S. aureus topoisomerase IV: The assay was performed using S. aureus topoisomerase IV decatenation kits (Inspiralis, Norwich, UK). Interlinked kDNA substrate (0.5 µg) was incubated with 1 unit of topoisomerase IV (Inspiralis, Norwich, UK), in the dedicated decatenation assay buffer supplied by the manufacturer, in the presence of varying concentrations of the test compounds. Reactions were carried out at 37 °C for 1 h and then terminated by the addition of equal volume of 2 × STOP Buffer and chloroform/iso-amyl alcohol. Samples were vortexed, centrifuged, and run through a 15 cm 1% agarose gel in TAE buffer for 1.5 h at 80 V. Gels were stained with ethidium bromide and visualized under UV light.

[6] = Staphylococcus aureus, ATCC25923, read-out: MIC

Row | SMILES | MIC (B. cereus ATCC 10876) | MIC (M. luteus ATCC 10240) | MIC [1] | MIC (S. aureus ATCC 25923 [2]) | MIC (S. aureus ATCC 25923 [2]; [6]) | MIC (B. subtilis ATCC 6633) | MIC (S. aureus ATCC 6538) | melting point | MIC (MSSA-3) | MIC (MSSA-4) | MIC (MRSA-1) | MIC (MSSA-2) | MIC (MSSA-1) | interaction in combination (S. aureus ATCC 25923 [3]; combination with amoxicillin) | interaction in combination (S. aureus ATCC 25923 [3]; combination with gentamicin) | interaction in combination (S. aureus ATCC 25923 [3]; combination with levofloxacin) | interaction in combination (S. aureus ATCC 25923 [3]; combination with linezolid) | interaction in combination (S. aureus ATCC 25923 [3]; combination with vancomycin) | viability at 24 h, 25 µg/mL (MTT cytotoxicity assay) | IC50 [4] | also measured
1 | O=C(NNC(=S)Nc1cccc(Cl)c1)c1ccccc1F [compound 7, 4-(3-chlorophenyl)-1-(2-fluorobenzoyl)thiosemicarbazide] | 31.2 µg/mL (≈ 96.5 µM) | 7.82 µg/mL (≈ 24.2 µM) | 31.2 µg/mL (≈ 96.5 µM) | 62.50 µg/mL (≈ 193 µM) | 62.5 µg/mL (≈ 193 µM) | 15.6 µg/mL (≈ 48.3 µM) | 31.2 µg/mL (≈ 96.5 µM) | 158 to 160 °C | 125 µg/mL (≈ 386 µM) | 125 µg/mL (≈ 386 µM) | 500 µg/mL (≈ 1540 µM) | > 500 µg/mL | 125 µg/mL (≈ 386 µM) | additively | no interactions | synergistically | no interactions | antagonistic | 93.2% | > 25 µg/mL | inhibition at 50 µM (S. aureus DNA gyrase; 50 µM): 23.8 ± 5.02%; inhibition at 100 µM (S. aureus DNA gyrase; 100 µM): 33.1 ± 1.04%
2 | O=C(NNC(=S)Nc1cccc(C(F)(F)F)c1)c1ccccc1F [compound 8, 1-(2-fluorobenzoyl)-4-(3-trifluoromethylphenyl)thiosemicarbazide] | 7.82 µg/mL (≈ 21.9 µM) | 7.82 µg/mL (≈ 21.9 µM) | 7.82 µg/mL (≈ 21.9 µM) | – | 15.6 µg/mL (≈ 43.7 µM) | 7.82 µg/mL (≈ 21.9 µM) | 15.6 µg/mL (≈ 43.7 µM) | 176 to 178 °C | > 500 µg/mL | > 500 µg/mL | > 500 µg/mL | > 500 µg/mL | 62.5 µg/mL (≈ 175 µM) | indifferently | indifferently | additively | additively | indifferently | 65.2% | > 25 µg/mL | inhibitory action against topoisomerase IV [5]: no inhibitory effects
3 | O=C(NNC(=S)Nc1cccc(Br)c1)c1ccccc1F [compound 9, 4-(3-bromophenyl)-1-(2-fluorobenzoyl)thiosemicarbazide] | 15.6 µg/mL (≈ 42.4 µM) | 7.82 µg/mL (≈ 21.2 µM) | 31.2 µg/mL (≈ 84.9 µM) | 62.50 µg/mL (≈ 170 µM) | 62.5 µg/mL (≈ 170 µM) | 15.6 µg/mL (≈ 42.4 µM) | 62.5 µg/mL (≈ 170 µM) | 166 to 168 °C | > 500 µg/mL | 125 µg/mL (≈ 339 µM) | 125 µg/mL (≈ 339 µM) | > 500 µg/mL | 62.5 µg/mL (≈ 170 µM) | indifferently | indifferently | additively | additively | indifferently | 63.1% | > 25 µg/mL | inhibitory action against topoisomerase IV [5]: no inhibitory effects
